Results published in ChEMBL document CHEMBL1269004, “Synthesis of a 6-methyl-7-deaza analogue of adenosine that potently inhibits replication of polio and dengue viruses” (J Med Chem, 2010).

Key:
Format in all cases: functional, HeLa S3
Enterovirus C [1] = test system: Enterovirus C
Enterovirus C [2] = test system: Enterovirus C; remark: listed apart in the source
Enterovirus C [3] = test system: Enterovirus C; remark: listed apart in the source
Enterovirus C [4] = test system: Enterovirus C; remark: listed apart in the source
Enterovirus C [5] = test system: Enterovirus C; remark: listed apart in the source
Enterovirus C [6] = test system: Enterovirus C; remark: listed apart in the source

`Cc1ncnc2c1ccn2[C@@H]1O[C@H](CO)[C@@H](O)[C@H]1O` gave a PFU (Enterovirus C [1]) of 19 and a PFU (Enterovirus C [2]) of 17.

`Cc1ncnc2c1ncn2[C@@H]1O[C@H](CO)[C@@H](O)[C@H]1O` showed a PFU (Enterovirus C [3]) of 12 and a PFU (Enterovirus C [4]) of 22.

`NC(=O)c1ncn([C@@H]2O[C@H](CO)[C@@H](O)[C@H]2O)n1` [RIBAVIRIN] gave a PFU (Enterovirus C [5]) greater than 250 and a PFU (Enterovirus C [6]) of 150.
